Measurements reported in US11447460B2, “Compounds and compositions for treating conditions associated with NLRP activity” (Novartis AG, priority 2016, dated 2022).

tested on: IL-1β production in PMA-differentiated THP-1 cells; assay: IL-1β production in PMA-differentiated THP-1 cells stimulated with gramicidin (hTHP-1 assay, 2% bovine serum; Bioassays 1 and 2); assay type: cell-based, human; conditions: Homo sapiens, THP-1; hTHP-1 assay containing 2% bovine serum; Table 12, by Example #; read-out: Average IC50 of compounds in hTHP-1 assay
In short: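 PMA-differentiated THP-1 cells in 2% FBS RPMI were pre-treated with compound for 1 h, then given gramicidin 5 μM for 2 h, and supernatants were assayed to give IC50. Protocol 1: PMA 10 μg/ml 24 h, 1×10^6 cells/ml, ELISA, 1% DMSO. Protocol 2: PMA 20 ng/ml 16-18 h, 50,000 cells/well, HTRF, 0.38% DMSO.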

Row | Structure (SMILES) | IC50
1 | CC(C)c1c(F)cc(F)c(C(C)C)c1CC(=O)NS(=O)(=O)c1ncc(C(C)(C)O)s1 [Example 77, 2-(3,5-difluoro-2,6-diisopropylphenyl)-N-(5-(2-hydroxypropan-2-yl)thiazol-2-ylsulfonyl)acetamide] | 1 to 5 µM
2 | CC(C)c1cc(F)c(F)c(C(C)C)c1CC(=O)NS(=O)(=O)c1ncc(C(C)(C)O)s1 [Example 76, 2-(3,4-difluoro-2,6-diisopropylphenyl)-N-(5-(2-hydroxypropan-2-yl)thiazol-2-ylsulfonyl)acetamide] | < 1 µM
3 | CC(C)c1cc(C#N)cc(C(C)C)c1CC(=O)NS(=O)(=O)c1ccc(C(C)(C)O)cc1 [Example 35, 2-(4-cyano-2,6-diisopropylphenyl)-N-(4-(2-hydroxypropan-2-yl)phenylsulfonyl)acetamide] | 1 to 5 µM
4 | Cc1ccc(S(=O)(=O)NC(=O)Cc2c(C(C)C)cc(F)cc2C(C)C)cc1C(C)(C)O [Example 45, 2-(4-fluoro-2,6-diisopropylphenyl)-N-(3-(2-hydroxypropan-2-yl)-4-methylphenylsulfonyl)acetamide] | 1 to 5 µM
5 | CC(C)c1cc(F)cc(C(C)C)c1CC(=O)NS(=O)(=O)c1ncc(CO)s1 [Example 91, 2-(4-Fluoro-2,6-diisopropylphenyl)-N-(5-(hydroxymethyl)thiazol-2-ylsulfonyl)acetamide] | 15 to 60 µM
6 | CC(C)c1cccc(C2CC2)c1CC(=O)NS(=O)(=O)c1ncc(C(C)(C)O)s1 [Example 80, 2-(2-cyclopropyl-6-isopropylphenyl)-N-(5-(2-hydroxypropan-2-yl)thiazol-2-ylsulfonyl)acetamide] | 5 to 15 µM
7 | CC(C)c1cc(F)cc(C(C)C)c1CC(=O)NS(=O)(=O)c1cnc(C(C)(C)O)s1 [Example 75, 2-(4-fluoro-2,6-diisopropylphenyl)-N-(2-(2-hydroxypropan-2-yl)thiazol-5-ylsulfonyl)acetamide] | < 1 µM
8 | CC(C)(O)c1cnc(S(=O)(=O)NC(=O)Cc2c3c(c(Cl)c4c2CCC4)CCC3)s1 [Example 5, 2-(8-Chloro-1,2,3,5,6,7-hexahydros-indacen-4-yl)-N-(5-(2-hydroxypropan-2-yl)thiazol-2-ylsulfonyl)acetamide] | 15 to 60 µM
9 | CC(C)c1cc(C#N)cc(C(C)C)c1CC(=O)NS(=O)(=O)c1ccc(C(C)(C)O)c(CO)c1 [Example 95, 2-(4-cyano-2,6-diisopropylphenyl)-N-(3-(hydroxymethyl)-4-(2-hydroxypropan-2-yl)phenylsulfonyl)acetamide] | 1 to 5 µM
10 | CC(C)c1cccc(C(C)C)c1CC(=O)NS(=O)(=O)c1cc(-c2ccncc2)cc(C(C)(C)O)c1 [Example 22, 2-(2,6-diisopropylphenyl)-N-(3-(2-hydroxypropan-2-yl)-5-(pyridin-4-yl)phenylsulfonyl)acetamide] | 15 to 60 µM
11 | Cc1oc(S(=O)(=O)NC(=O)Cc2c(C(C)C)cc(F)cc2C(C)C)cc1C(C)(C)O [Example 18, 2-(4-fluoro-2,6-diisopropylphenyl)-N-(4-(2-hydroxypropan-2-yl)-5-methylfuran-2-ylsulfonyl)acetamide] | 1 to 5 µM
12 | CC(C)c1c(F)c(Cl)c(F)c(C(C)C)c1CC(=O)NS(=O)(=O)c1cc(C(C)(C)O)cs1 [Example 12, 2-(4-chloro-3,5-difluoro-2,6-diisopropylphenyl)-N-(4-(2-hydroxypropan-2-yl)thiophen-2-ylsulfonyl)acetamide] | < 1 µM
13 | CC(C)c1c(F)c(Cl)c(F)c(C(C)C)c1CC(=O)NS(=O)(=O)c1cc(C(C)(C)O)co1 [Example 20, 2-(4-chloro-3,5-difluoro-2,6-diisopropylphenyl)-N-(4-(2-hydroxypropan-2-yl)furan-2-ylsulfonyl)acetamide] | < 1 µM
14 | CC(C)c1cc(Cl)cc(C(C)C)c1CC(=O)NS(=O)(=O)c1ncc(C(C)(C)O)s1 [Example 70, 2-(4-chloro-2,6-diisopropylphenyl)-N-(5-(2-hydroxypropan-2-yl)thiazol-2-ylsulfonyl)acetamide] | < 1 µM
15 | CC(C)c1cc(F)cc(C(C)C)c1CC(=O)NS(=O)(=O)c1ccn(C(C)C)n1 [Example 62, 2-(4-fluoro-2,6-diisopropylphenyl)-N-(1-isopropyl-1H-pyrazol-3-ylsulfonyl)acetamide] | 5 to 15 µM
16 | CC(C)c1cc(F)cc(C(C)C)c1CC(=O)NS(=O)(=O)c1ccc(C(C)(C)O)c(F)c1 [Example 53, 2-(4-fluoro-2,6-diisopropylphenyl)-N-(3-fluoro-4-(2-hydroxypropan-2-yl)phenylsulfonyl)acetamide] | < 1 µM
17 | COC(C)(C)c1cnc(S(=O)(=O)NC(=O)Cc2c(C(C)C)cc(C#N)cc2C(C)C)s1 [Example 74, 2-(4-cyano-2,6-diisopropylphenyl)-N-(5-(2-methoxypropan-2-yl)thiazol-2-ylsulfonyl)acetamide] | 5 to 15 µM
18 | CC(C)c1cc(F)cc(C(C)C)c1CC(=O)NS(=O)(=O)c1cc(C(C)(C)O)ccc1F [Example 52, 2-(4-fluoro-2,6-diisopropylphenyl)-N-(2-fluoro-5-(2-hydroxypropan-2-yl)phenylsulfonyl)acetamide] | 1 to 5 µM
19 | CC(C)c1cc(F)cc(C(C)C)c1CC(=O)NS(=O)(=O)c1ncc(CCO)s1 [Example 97, 2-(4-fluoro-2,6-diisopropylphenyl)-N-(5-(2-hydroxyethyl)thiazol-2-ylsulfonyl)acetamide] | 5 to 15 µM
20 | CC(C)c1cc(Cl)cc(C(F)(F)F)c1CC(=O)NS(=O)(=O)c1ncc(C(C)(C)O)s1 [Example 79, 2-(4-chloro-2-isopropyl-6-(trifluoromethyl)phenyl)-N-(5-(2-hydroxypropan-2-yl)thiazol-2-ylsulfonyl)acetamide] | 15 to 60 µM
21 | CC(C)c1cccc(C(C)C)c1CC(=O)NS(=O)(=O)c1cc(-c2ccccc2)cc(C(C)(C)O)c1 [Example 23, 2-(2,6-diisopropylphenyl)-N-(5-(2-hydroxypropan-2-yl)biphenyl-3-ylsulfonyl)acetamide] | 1 to 5 µM
22 | CC(C)c1ccc(F)c(C(C)C)c1CC(=O)NS(=O)(=O)c1cccc(C(C)(C)O)c1 [Example 42, 2-(3-fluoro-2,6-diisopropylphenyl)-N-(3-(2-hydroxypropan-2-yl)phenylsulfonyl)acetamide] | 5 to 15 µM
